{"source": "patent US10227359B2", "about": "“Tricyclic heterocycles as bet protein inhibitors” (Incyte Corporation, priority 2014, dated 2019)", "key": {"[1]": {"tested_on": "KMS.12.BM cell line (human myeloma)", "assay": "KMS.12.BM Cell Viability Assay", "format": "cell-based", "conditions": "72 h, KMS.12.BM cells, 3 days, Cell Titer-GLO, read-out: KMS cellular IC50", "description": "Example B1: KMS.12.BM Cell Viability Assay\nKMS.12.BM cell line (human myeloma) was purchased from JCRB (Osaka, Japan) and maintained in RPMI with 10% FBS culture medium. To measure the cytotoxic activity of the compounds through ATP quantitation, the KMS.12.BM cells are plated in the RPMI culture medium at 5000 cells/well/per 100 μL into a 96-well polystyrene clear black tissue culture plate (Greiner-bio-one through VWR, NJ), in the presence or absence of a concentration range of test compounds. After 3 days, […] Cell Titer-GLO Luminescent (Promega, Madison, Wis.) cell culture agent is added to each well for 10 min. at room temperature to stabilize the luminescent signal. This determines the number of viable cells in culture based on quantitation of the ATP present, which signals the presence of metabolically active cells. Luminescence is measured with the Top Count 384 (Packard Bioscience through Perkin Elmer, Boston, Mass.). Compound inhibition is determined relative to cells cultured with no drug and the IC50 reported as the compound concentration required for 50% cell death."}, "C-myc in KMS.12.BM cells": {"tested_on": "C-myc in KMS.12.BM cells", "assay": "KMS.12.BM C-myc ELISA Assay", "format": "cell-based", "conditions": "Homo sapiens, 2 h", "description": "KMS.12.BM C-myc ELISA Assay\nKMS.12.BM cell line (human myeloma) was purchased from JCRB (Osaka, Japan) and maintained in RPMI with 10% FBS culture medium. To measure the C-myc inhibitory activity of the compounds, the KMS.12.BM cells are plated in the RPMI culture medium at 75000 cells/well/per 200 μL into a 96-well flat bottom polystyrene tissue culture plate (Corning through VWR, NJ), in the presence or absence of a concentration range of test compounds. After 2 h, cells are pelleted and lysed with Cell Extraction Buffer (BioSource, Carlsbad, Calif.) in the presence of protease inhibitors (Life Technologies, Grand Island, N.Y. and Sigma, St Louis, Mo.). Clarified lyses are tested in a C-myc commercial ELISA (Life Technologies, Grand Island, N.Y.). Compound inhibition is determined relative to cells cultured with no drug and the IC50 reported as the compound concentration required for 50% C-myc inhibition."}}, "data": [{"smiles": "CC(=O)N1C[C@@H](C)N(c2nc3ccc(-c4c(C)noc4C)c4c3n2[C@@H](c2ccccn2)CO4)[C@@H](C)C1", "note": "(atropisomer, axis not shown) [Example 2, (4S)-2-[(2R,6S)-4-Acetyl-2,6-dimethylpiperazin-1-yl]-7-(3,5-dimethylisoxazol-4-yl)-4-pyridin-2-yl-4,5-dihydroimidazo[1,5,4-de][1,4]benzoxazine]", "values": [{"measurement": "IC50", "setting": "[1]", "value": "≤ 100", "unit": "nM"}, {"measurement": "IC50", "setting": "C-myc in KMS.12.BM cells", "value": "≤ 100", "unit": "nM"}]}, {"smiles": "CC(=O)NC1(C)CCN(c2nc3ccc(-c4c(C)noc4C)c4c3n2[C@@H](c2ccccn2)CO4)CC1", "note": "[Example 5, N-{1-[(4S)-7-(3,5-dimethylisoxazol-4-yl)-4-pyridin-2-yl-4,5-dihydroimidazo[1,5,4-de][1,4]benzoxazin-2-yl]-4-methylpiperidin-4-yl}acetamide]", "values": [{"measurement": "IC50", "setting": "[1]", "value": "≤ 100", "unit": "nM"}, {"measurement": "IC50", "setting": "C-myc in KMS.12.BM cells", "value": "≤ 100", "unit": "nM"}]}, {"smiles": "Cc1noc(C)c1-c1ccc2nc(N3CCC(N(C)S(=O)(=O)C4CC4)CC3)n3c2c1OC[C@@H]3c1ccccn1", "note": "[Example 24, N-{1-[(4S)-7-(3,5-dimethylisoxazol-4-yl)-4-pyridin-2-yl-4,5-dihydroimidazo[1,5,4-de][1,4]benzoxazin-2-yl]piperidin-4-yl}-N-methylcyclopropanesulfonamide]", "values": [{"measurement": "IC50", "setting": "[1]", "value": "≤ 100", "unit": "nM"}, {"measurement": "IC50", "setting": "C-myc in KMS.12.BM cells", "value": "≤ 100", "unit": "nM"}]}, {"smiles": "Cc1noc(C)c1-c1ccc2nc(N3CCN(C(=O)C4CCC4)CC3)n3c2c1OC[C@@H]3c1ccccn1", "note": "[Example 28, (4S)-2-[4-(cyclobutylcarbonyl)piperazin-1-yl]-7-(3,5-dimethylisoxazol-4-yl)-4-pyridin-2-yl-4,5-dihydroimidazo[1,5,4-de][1,4]benzoxazine]", "values": [{"measurement": "IC50", "setting": "[1]", "value": "≤ 100", "unit": "nM"}, {"measurement": "IC50", "setting": "C-myc in KMS.12.BM cells", "value": "100 to 1000", "unit": "nM"}]}, {"smiles": "Cc1noc(C)c1-c1ccc2nc(N3CCN(C(=O)C4CC4)CC3)n3c2c1OC[C@@H]3c1ccccn1", "note": "[Example 27, (4S)-2-[4-(cyclopropylcarbonyl)piperazin-1-yl]-7-(3,5-dimcthylisoxazol-4-yl)-4-pyridin-2-yl-4,5-dihydroimidazo[1,5,4-de][1,4]benzoxazine]", "values": [{"measurement": "IC50", "setting": "[1]", "value": "≤ 100", "unit": "nM"}, {"measurement": "IC50", "setting": "C-myc in KMS.12.BM cells", "value": "≤ 100", "unit": "nM"}]}, {"smiles": "Cc1noc(C)c1-c1ccc2nc(N3CCN(C(=O)C(C)C)[C@@H](C)C3)n3c2c1OC[C@@H]3c1ccccn1", "note": "[Example 9, (4S)-7-(3,5-dimethylisoxazol-4-yl)-2-[(3S)-4-isobutyryl-3-methylpiperazin-1-yl]-4-pyridin-2-yl-4,5-dihydroimidazo[1,5,4-de][1,4]benzoxazine]", "values": [{"measurement": "IC50", "setting": "[1]", "value": "≤ 100", "unit": "nM"}, {"measurement": "IC50", "setting": "C-myc in KMS.12.BM cells", "value": "≤ 100", "unit": "nM"}]}, {"smiles": "CCS(=O)(=O)N(C)C1CCN(c2nc3ccc(-c4c(C)noc4C)c4c3n2[C@@H](c2ccccn2)CO4)CC1", "note": "[Example 23, N-{1-[(4S)-7-(3,5-dimethylisoxazol-4-yl)-4-pyridin-2-yl-4,5-dihydroimidazo[1,5,4-de][1,4]benzoxazin-2-yl]piperidin-4-yl}-N-methylethanesulfonamide]", "values": [{"measurement": "IC50", "setting": "[1]", "value": "≤ 100", "unit": "nM"}, {"measurement": "IC50", "setting": "C-myc in KMS.12.BM cells", "value": "100 to 1000", "unit": "nM"}]}, {"smiles": "Cc1noc(C)c1-c1ccc2nc(N3CCC(N(C)C(=O)C4CC4)CC3)n3c2c1OC[C@@H]3c1ccccn1", "note": "[Example 19, N-{1-[(4S)-7-(3,5-dimelhylisoxazol-4-yl)-4-pyridin-2-yl-4,5-dihydroimidazo[1,5,4-de][1,4]benzoxazin-2-yl]piperidin-4-yl}-N-methylcyclopropanecarboxamide]", "values": [{"measurement": "IC50", "setting": "[1]", "value": "≤ 100", "unit": "nM"}, {"measurement": "IC50", "setting": "C-myc in KMS.12.BM cells", "value": "≤ 100", "unit": "nM"}]}, {"smiles": "CC(=O)N1CC2CC1CN2c1nc2ccc(-c3c(C)noc3C)c3c2n1[C@@H](c1ccccn1)CO3", "note": "(stereo partly drawn) [Example 4, (4S)-2-(5-acetyl-2,5-diazabicyclo[2.2.1]hept-2-yl)-7-(3,5-dimethylisoxazol-4-yl)-4-pyridin-2-yl-4,5-dihydroimidazo[1,5,4-de][1,4]benzoxazine]", "values": [{"measurement": "IC50", "setting": "[1]", "value": "≤ 100", "unit": "nM"}, {"measurement": "IC50", "setting": "C-myc in KMS.12.BM cells", "value": "≤ 100", "unit": "nM"}]}, {"smiles": "Cc1noc(C)c1-c1ccc2nc(N3CCC(N(C)C(=O)N(C)C)CC3)n3c2c1OC[C@@H]3c1ccccn1", "note": "[Example 21, N-{1-[(4S)-7-(3,5-dimethylisoxazol-4-yl)-4-pyridin-2-yl-4,5-dihydroimidazo[1,5,4-de][1,4]benzoxazin-2-yl]piperidin-4-yl}-N,N′,N′-trimethylurea]", "values": [{"measurement": "IC50", "setting": "[1]", "value": "≤ 100", "unit": "nM"}, {"measurement": "IC50", "setting": "C-myc in KMS.12.BM cells", "value": "≤ 100", "unit": "nM"}]}]}
